# Measured values as given in patent publication US20090123389A1, “Methods for modulating Th17 cell development in the treatment and prevention of cellulite” (priority 2007, published 2009).
# pIC50: −log10 of the molar value. Where “and” joins values, the source holds several entries; their conditions need not be identical. Equal entries are not always repeated. Where two headings read alike, the source gives them in different places.
# Assays:
# [1] = test system: human memory T cells (CD4+ CD45RO+); experiment: IL-17 and IFNγ expression by human memory T cells co-cultured with monocytes; type: cell-based; details: 100 nM HF, 6 days
# Description: FIG. 10F is an illustration depicting purified primary human memory T cells (CD4^+ CD45RO^+) activated by anti-CD3/anti-CD28 coated beads in co-culture with CD14^+ monocytes and treated with DMSO, 100 nM HF or 100 nM MAZ1310. T cells were expanded for 6 days and intracellular cytokine expression was determined following restimulation with PMA plus ionomycin in the presence of brefeldin A.
# Human T cell isolation and activation: Resting CD4^+ T cells were isolated from PBMC of healthy human donors using Dynal CD4 Positive Isolation Kit (Invitrogen, Carlsbad, Calif.) as previously described (M. Sundrud et al., Blood 106, 3440, 2005). CD4^+ cells were further purified to obtain memory T cells by staining with PE-conjugated anti-human CD45RO-PE antibodies (BD Biosciences), and sorting on a FACSAria cytometer (BD Biosciences). Following purification, cells were greater than 99% CD4^+ CD45RO^+. […] T cells were expanded in the presence HF or MAZ1310 as indicated for 6 days and intracellular cytokine expression was determined by intracellular staining.
# Detection of cytokine production: Cytokines secreted into media supernatant were measured using the mouse Th1/Th2 cytometric bead array (CBA, BD Pharmingen) in accordance with manufacturers instructions. […]
# CD4+ CD25− T cells = experiment: Th17 differentiation / IL-17 expression of activated CD4+ CD25− T cells (TGFβ plus IL-6); type: cell-based, mouse; details: for pIC50: Mus musculus, T-cell
# Description: Low doses of halofuginone (HF) were tested to determine the ability of HF to enhance Treg differentiation, while suppressing Th17 differentiation. Naïve CD4+ T cells (CD4+ CD25−) were isolated from the spleen and peripheral lymph nodes of C57B/6 mice. T cells were then activated using anti-CD3 (0.3 μg/ml) and anti-CD28 (0.5 μg/ml) antibodies either in media alone (row 1, 4), TGFβ alone (3 ng/ml—row 2, 5) or TGFβ (3 ng/ml) plus IL-6 (30 ng/ml) (row 3, 6). […] T cells were cultured for 3 days and CD25 and Foxp3 expression (Treg marker genes) was determine by FACS staining and flow cytometric analyses. Simultaneously, T cells were harvested and re-stimulated for 4 hours using phorbol myristic acetate (PMA; 10 nM), Ionomycin (1 μM) and cytokine secretion was prevented using brefeldin A (20 μg/ml). Following stimulation, the production of IL-17 and IFNγ were determined by intracellular staining and analyzed via flow cytometry.
# The dose-response of HF on CD4+ T cell proliferation, activation (i.e. CD25 upregulation) and differentiation to Th1, Th2 and Th17 lineages were evaluated. Purified murine naïve CD4+ CD25− T cells were activated using anti-CD3 (0.3 μg/ml) and anti-CD28 (0.5 μg/ml) antibodies and varying amounts of HF was added to each T cell culture condition (1.25 nM-40 nM). CD4+ T cell proliferation was monitored by CFSE dilution on day 3-post activation and CD25 expression was evaluated by FACS staining 2 days after activation. For T cell differentiation experiments, naïve T cells were activated as above in the presence of Th1 (IL-12 (20 ng/ml) plus anti-IL-4 (1.5 μg/ml)), Th2 (IL-4 (50 ng/ml) plus anti-IFNγ (0.5 mg/ml)) or Th17 (TGFβ (3 ng/ml) plus IL-6 (30 ng/ml)) polarizing conditions plus titrating amounts of HF (1.25 nM-40 nM) or MAZ1310 (40 nM). […] All cytokine expression was determined by intracellular staining following PMA+Ionomycin+Brefeldin A re-stimulation and all data was normalized to control (MAZ1310)-treated cells. […] Biol., vol. 80:1-8 (2006).
# Cytokines, antibodies and T cell culture: Purified CD4^+ CD25^− T cells were activated in vitro as previously described (I. M. Djuretic et al., Nat Immunol 8, 145 (2007)) using 0.3 μg/ml hamster anti-mouse CD3 (clone 145-2C11) (ATCC—Manassas, Va.) and 0.5 μg/ml hamster anti-mouse CD28 (BD Pharmingen, San Jose, Calif.). Activated cell cultures were differentiated using the following combinations of cytokines and antibodies: iTreg=recombinant human TGFβ1 (3 ng/ml; R&D systems, Minneapolis, Minn.), Th17=TGFβ1 (3 ng/ml) plus recombinant mouse IL-6 (30 ng/ml, R&D systems). Th1 and Th2 differentiation was performed as previously described. (I. M. Djuretic et al., Nat Immunol 8, 145 (2007)). Human IL-2 supernatant (National Cancer Institute) was used in culture at 0.01 U/ml and was added at 48 hours-post activation when T cells were split into tissue culture wells lacking CD3 and CD28 antibodies, with the exception of Th17 cultures that were maintained in the absence of IL-2. All reagents were added at the time of T cell activation and again at 48-hours post activation unless indicated otherwise. For some experiments, purified CD4^+ CD25^− T cells, CD8^+ T cells or B cells were labeled with 1 μM CFSE (Invitrogen) prior to activation in accordance with manufacturers instructions.
# MAZ1310 was generated by chemical derivatization of halofuginone and was used at equal concentrations as a negative control.
# fibroblasts = experiment: Protein synthesis, proliferation and death of cultured fibroblasts; type: cell-based
structure (smiles),measurement,setting,value
"O=C(CC1NCCCC1O)Cn1cnc2cc(Br)c(Cl)cc2c1=O (racemic) [HF, 7-bromo-6-chloro-3-[3-(3-hydroxy-2-piperidinyl)-2-oxopropyl]-4(3H)-quinazolinone]",IFNγ expression by human T cells,[1],essentially unaffected
same,percentage of human T cells expressing IL-17 and amount of IL-17 produced,[1],greatly reduced
same,IL-17 expression in cultures where IFNγ and IL-4 were blocked by neutralizing antibodies,CD4+ CD25− T cells,reduced IL-17 expression
same,window of HF addition at start of culture giving most pronounced inhibition of IL-17 expression,CD4+ CD25− T cells; 10 nM HF added at different times after activation,12 h
same,IL-17 expression in T cells lacking Foxp3,"CD4+ CD25− T cells; 10 nM HF, TGFβ plus IL-6",strongly repressed
same,Th17 differentiation of T cells expressing STAT3C,"CD4+ CD25− T cells; 10 nM HF, TGFβ plus IL-6",remained capable of differentiating into Th17 cells
same,Il17 and Il17f mRNA expression,"CD4+ CD25− T cells; 10 nM HF, Th17 conditions, 4 days",impaired expression
same,pIC50,"CD4+ CD25− T cells; 96 h, percentage of IL-17+ IFNγ− cells after restimulation on day 4-5, read-out: IC50 of repression of Th17 differentiation",8.44
same,pIC50,"CD4+ CD25− T cells; in vitro, read-out: 50% inhibition of Th17 cell development",8.52 to 8.70
same,Th17 differentiation of cells expressing YFP or no transgene,"CD4+ CD25− T cells; TAT-Cre treated T cells, TGFβ plus IL-6",strongly impaired
same,HF concentration that inhibited expression of IL-17,CD4+ CD25− T cells; TGFβ/IL-6 treated T-cells,2.5 to 10 nM and 2.2 to 10 nM
same,IL-17 production,CD4+ CD25− T cells; low concentrations of HF (1-10 nM),strongly reduced
same,fold lower doses for effects on Th17 differentiation than for general inhibition of T-cell proliferation and differentiation,CD4+ CD25− T cells; versus proliferation and Th1 or Th2 differentiation,5- to 10 fold and ~10 fold
same,concentrations that inhibit protein synthesis and cell proliferation of fibroblasts in culture,fibroblasts,over 80 nM
same,doses that do not cause death of cultured fibroblasts,fibroblasts; over a period of 5 days,up to 500 nM
